Measured values taken from patent US20230119141A1, “USES OF TAXIFOLIN FOR R[…]” (PHYTO TECH CORP., priority 2021, published 2023).

Test system: SARS-CoV-2
Test: SARS-CoV-2 infection in Golden Syrian hamsters, viral loads in swabs and organs
Type: in vivo
Protocol: The therapeutic efficacy of taxifolin against SARS-CoV-2 infection was examined in Golden Syrian hamsters, a small animal model that most closely recapitulates clinical and pathological features of COVID-19 in humans. See, e.g., Imai, M, et al., Proc. Nat. Acad. Sci. 117(28):16587-16595 (2020); Reagan-Shaw, S., et al., FASEB J. 22:659-661 (2007). […] Animals in the taxifolin group (n=15) received prophylactic treatment of taxifolin (66.7 mg/kg) through oral gavage (OG) before the viral infection.
After SARS-CoV-2 inoculation, animals in the taxifolin group were orally given taxifolin (66.7 mg/kg) at days 1, 3, and 5. Animals in the control group (n=10) received an equal amount of PBS through oral gavage. At day 7, certain animals in the taxifolin (n=6) group and control group (n=5) were sacrificed, and the viral loads in major organs were tested.

## O=C1c2c(O)cc(O)cc2OC(c2ccc(O)c(O)c2)C1O (stereo not shown) [taxifolin, 2-(3,4-dihydroxyphenyl)-3,5,7-trihydroxychroman-4-one]
Day 5 after infection, taxifolin 66.7 mg/kg oral gavage prophylactic and at days 1, 3, 5, n=8, control ~3×10^6
  viral load in nasal swabs: ~7×10^4 RNA copies/100 μL
Day 7, taxifolin 66.7 mg/kg oral gavage
  viral loads in oral swabs vs control: decreased the viral loads in oral swabs
Day 7, taxifolin 66.7 mg/kg oral gavage, n=4 per group
  viral loads in the trachea vs control: clearly reduced the viral loads in the trachea
Days 3 and 5 after viral infection, taxifolin 66.7 mg/kg oral gavage
  viral loads in nasal swabs vs control: significantly lowered the viral loads in nasal swabs
